Measurements from patent US11236056B2, “Small molecules and methods of reducing injuries caused by radiation or chemicals” (priority 2019, dated 2022).
Values after ≈ are worked out from the molar mass of the structure shown. Like-named read-outs stand apart in the source and are kept apart here.

Legend:
NIH-Swiss female mice [1] = assay: Radioprotection against TBI induced mortality, 30 min pretreatment (Example 2); format: in vivo; settings: 80 mg/kg i.p. 30 min prior to 7.5 Gy TBI
Procedure: NIH-Swiss female mice were divided into 5 groups (8 mice/group). Thirty min prior to 7.5 Gy TBI, mice were treated by i.p. injection with UTS-1401, -1402, and -1403 (80 mg/kg each) or vehicle, respectively. Mice in control group were not irradiated. Definition of “death” used in this study was when a mouse actually died or when a mouse lost 20% or more of its bodyweight.
FIG. 2 is a graph of the radioprotection of UTS-1401, -1402, and -1403 determined according to Example 2.

NIH-Swiss female mice [2] = assay: Drug dose-dependent radioprotection against TBI induced mortality, 30 min pretreatment (Example 3); format: in vivo; settings: 25 or 75 mg/kg i.p. 30 min prior to 7.5 Gy TBI
Procedure: NIH-Swiss female mice were divided into 4 groups (8 mice/group). Thirty min prior to 7.5 Gy TBI, mice were treated by i.p. injection with UTS-1401 (0, 2, or 6 mg/mL or 0, 25, or 75 mg/kg) or vehicle, respectively. Mice in control group were not irradiated. Definition of “death” used in this study was when a mouse actually died or when a mouse lost 20% or more of its bodyweight.
FIG. 3 is a graph of the dose-dependent effect of UTS-1401 on TBI induced mortality in NIH-Swiss mice determined according to Example 3.

[3] = Solubility determination of UTS-14 compounds; format: physicochemical; settings: thermodynamic from solid
Procedure: If the compound was not dissolved, more solvent was added and the solution was watched again after one day. This procedure was continued until the compound was completely dissolved, after which the solubility was calculated.

H9C2 cardiomyocytes = assay: Protection against doxorubicin-induced damage on cardiomyocytes in vitro (MTT assay); format: cell-based; settings: 30 min pretreatment before DOX, assayed 3 days later
Procedure: Briefly, myocardiocytes H9C2 were cultured in high glucose DMEM with 10% bovine calf serum and 10,000 cells per well of cardiomyocytes were treated by DOX with and without the 30 min pretreatment of UTS-1401. The survival rates were assayed by MTT assay 3 days later.
FIG. 8 is a graph showing protection of UTS-1401 on H9C2 cardiomyocytes against DOX-induced determined according to Example 6.

NIH Swiss female mice = assay: Radioprotection, 24 hr pretreatment, female mice (Example 5); format: in vivo
Procedure: Only 8.5 Gy results are summarized here.
FIG. 7 is a graph of the effect of UTS-1401 on TBI induced mortality in NIH-Swiss mice administered at 150 mg/kg determined according to Example 5.

NIH Swiss male mice = assay: Radioprotection, 24 hr pretreatment, male mice (Example 5); format: in vivo
Procedure: NIH Swiss male mice were studied for the radioprotective effects of UTS-1401 at 50, 100, and 150 mg/kg respectively by i.p. injection at 24 hr before TBI at 6.5, 7.5, and 8.5 Gy. […] These observations indicate that UTS-1401 is effective as a radioprotector for male NIH Swiss mice against TBI of both 7.5 and 8.5 Gy.
FIG. 6 is a graph of the effect of UTS-1401 on TBI induced mortality in NIH-Swiss mice administered at 100 mg/kg determined according to Example 5.

NIH-Swiss female mice [4] = assay: Radioprotection compared with amifostine, 45 min before or after TBI (Example 4); format: in vivo
Procedure: NIH-Swiss female mice were divided into 8 groups (10 mice/group). (A) Forty-five min prior to 7.5 Gy TBI, mice were treated by i.p. injection with UTS-1401 (75 mg/kg), amifostine (75 mg/kg) or vehicle, respectively. Mice in control group were not irradiated. (B) Same procedure as in (A) except that mice were treated by testing agents forty-five min after 7.5 Gy TBI.
FIG. 4 is a graph of the effects of UTS-1401 and amifostine on TBI induced in NIH-Swiss mice mortality administered 45 minutes before TBI determined according to Example 4.
FIG. 5 is a graph of the effects of UTS-1401 and amifostine on TBI induced in NIH-Swiss mice mortality administered 45 minutes after TBI determined according to Example 4.

[5] = water, rm temp, read-out: solubility in water
[6] = 50, 100, and 150 mg/kg 24 hr before 8.5 Gy TBI
[7] = 75 mg/kg i.p. 45 min after 7.5 Gy TBI
[8] = 75 mg/kg i.p. 45 min before 7.5 Gy TBI

SMILES: CSCc1cc(C(=O)O)no1 [UTS-1401]
- survival of irradiated mice (NIH-Swiss female mice [1]): increased the survival
- survival rate of mice (NIH-Swiss female mice [2]): increased the survival rate of mice in a dose-dependent manner
- solubility ([3]; saline or isotonic, saline, 37° C., read-out: solubility in saline at 37° C.): 12 mg/mL (≈ 69.3 mM)
- solubility [3, 5]: ~9.5 mg/mL (≈ 54.9 mM)
- protection of cardiomyocytes (survival rates by MTT) (H9C2 cardiomyocytes): protected cardiomyocytes significantly
- dose dependence of radioprotective effects (NIH Swiss female mice; [6]): essentially the same for all 3 doses
- radioprotective effects / mortality (NIH Swiss female mice; [6]): significant radioprotective effects and reduced the mortality
- optimal dose (NIH Swiss female mice; 24 hr before 8.5 Gy TBI): around 50 mg/kg
- survival rates (NIH Swiss male mice; 50, 100, 150 mg/kg i.p. 24 hr before 7.5 Gy TBI): greatly increased
- dose dependence of survival rates (NIH Swiss male mice; 50, 100, 150 mg/kg i.p. 24 hr before 7.5 and 8.5 Gy TBI): drug-dose dependent
- survival rates (NIH Swiss male mice; 50, 100, 150 mg/kg i.p. 24 hr before 8.5 Gy TBI): greatly increased
- day from which average body wt of surviving pretreated mice started to recover (NIH Swiss male mice; i.p. 24 hr before TBI): ~20 days
- survival rate of mice (NIH-Swiss female mice [4]; [7]): significantly increased the survival rate
- survival rate of mice (NIH-Swiss female mice [4]; [8]): increased the survival rate
- radioprotection as compared with amifostine (NIH-Swiss female mice [4]; 75 mg/kg i.p. 45 min before or after 7.5 Gy TBI): better radioprotection as compared with amifostine

SMILES: C[S+]([O-])Cc1cc(C(=O)O)no1 (stereo not shown) [UTS-1402]
- survival of irradiated mice (NIH-Swiss female mice [1]): increased the survival
- solubility [3, 5]: ~16 mg/mL (≈ 84.6 mM)

SMILES: CS(=O)(=O)Cc1cc(C(=O)O)no1 [UTS-1403]
- survival of irradiated mice (NIH-Swiss female mice [1]): increased the survival
- solubility ([3]; Hank's Balanced Salt Solution (HBSS), saline or isotonic, read-out: solubility in Hank's Balanced Salt Solution (HBSS)): ~15.8 mg/mL
- solubility [3, 5]: ~9.1 mg/mL (≈ 44.3 mM)

SMILES: NCCCNCCSP(=O)(O)O [amifostine, Amifostine, reference compound]
- survival rate of mice (NIH-Swiss female mice [4]; [7]): did not increase the survival rate
- survival rate of mice (NIH-Swiss female mice [4]; [8]): increased the survival rate
